In patent US5703241A, “Inhibitor of farnesyl-protein transferase” (Merck & Co., Inc., priority 1996, dated 1997):

Legend:
[1] = tested on: farnesyl-protein transferase in white blood cells; experiment: In vivo pharmacodynamic effects of farnesyl-protein transferase inhibitors in mammalian white blood cells; details: following a single administration of the compound
Method: In vivo pharmacodynamic effects of farnesyl-protein transferase inhibitors in mammalian white blood cells
The test mammal (beagle, Cynomolgus monkey, Rhesus monkey or African green monkey) is dosed by an IV, PO or suppository dose of a given concentration of drug in a suitable vehicle, such as IV:5% EtOH/citrate buffered saline, PO:50 mmol citric acid in water and suppository: 17.7% compound, 38% hydrous lactose; 44.3% PEG 8000.
Following drug dosing, the animals are bled at times t=0, 5 mins., 15 mins., 30 mins., 60 mins., 90 mins., 180 mins.(3 hours), 270 mins. (4.5 hours), 360 mins. (6 hours) and 1440 mins. (24 hours) by withdrawing 3 mL of blood into a sodium heparin vacutainer tube and placing the drawn blood immediately on ice. The vacutainer tubes are then spun at 2800 rpm in a table top centrifuge for 5 minutes at 4 degrees. Following the spin, the upper plasma layer is withdrawn from the vacutainer tube leaving an 1/8" of plasma on top of the blood pellet. The vacutainer tubes and plasma tubes are then put into dry ice for a quick freeze and once frozen, the samples are stored at -70° degrees.
For evaluation of the white blood cells, the frozen vacutainer tube is broken at the bottom utilizing a triangular metal file, and the frozen pellet of blood is removed (prior to breaking the tube it can warmed slightly in a 30° bath taking precautions not to melt the pellet). […]

human FPTase = molecular target: T1, human FPTase (Homo sapiens, UniProt P49354+P49356); experiment: In vitro inhibition of human farnesyl-protein transferase ([3H]-FPP incorporation into Ras-CVIM); format: biochemical; details: 100 nM Ras-CVIM, 30 min, read-out: IC50, inhibitory activity against human FPTase
T1 construct: made in house

| SMILES | inhibition of FPTase in white blood cells of mammals [1] | IC50 (human FPTase) [µM] |
| --- | --- | --- |
| COc1ccccc1CN(CC(=O)N[C@@H](CCSC)C(=O)OC(C)C)C[C@@H]1CCCN1C(=O)CCc1c[nH]cn1 [Example 1, N-[1-(1H-Imidazol-4-propionyl)pyrrolidin-2(S)-ylmethyl]-N-(2-methoxybenzyl) glycyl-methionine isopropyl ester] | sustained inhibition of FPTase in white blood cells |  |
| COc1ccccc1CN(CC(=O)N[C@@H](CCSC)C(=O)O)C[C@@H]1CCCN1C(=O)CCc1c[nH]cn1 [Example 2, N-[1-(1H-Imidazol-4-propionyl)pyrrolidin-2(S)-ylmethyl]-N-(2-methoxybenzyl)glycyl-methionine] |  | < 10 |
